Assay in all cases: Kinase selectivity, DiscoverX scanMAX Kinase assay panel (% control)
What all share (type): binding

Experiment [1] deals with T1, kinases of the scanMAX Kinase assay panel (Homo sapiens, UniProt Q13873).
T1 construct: purchased DiscoverX Co. (contract measurement) scanMAX Kinase assay panel
T1 sequence (Q13873 27-1038): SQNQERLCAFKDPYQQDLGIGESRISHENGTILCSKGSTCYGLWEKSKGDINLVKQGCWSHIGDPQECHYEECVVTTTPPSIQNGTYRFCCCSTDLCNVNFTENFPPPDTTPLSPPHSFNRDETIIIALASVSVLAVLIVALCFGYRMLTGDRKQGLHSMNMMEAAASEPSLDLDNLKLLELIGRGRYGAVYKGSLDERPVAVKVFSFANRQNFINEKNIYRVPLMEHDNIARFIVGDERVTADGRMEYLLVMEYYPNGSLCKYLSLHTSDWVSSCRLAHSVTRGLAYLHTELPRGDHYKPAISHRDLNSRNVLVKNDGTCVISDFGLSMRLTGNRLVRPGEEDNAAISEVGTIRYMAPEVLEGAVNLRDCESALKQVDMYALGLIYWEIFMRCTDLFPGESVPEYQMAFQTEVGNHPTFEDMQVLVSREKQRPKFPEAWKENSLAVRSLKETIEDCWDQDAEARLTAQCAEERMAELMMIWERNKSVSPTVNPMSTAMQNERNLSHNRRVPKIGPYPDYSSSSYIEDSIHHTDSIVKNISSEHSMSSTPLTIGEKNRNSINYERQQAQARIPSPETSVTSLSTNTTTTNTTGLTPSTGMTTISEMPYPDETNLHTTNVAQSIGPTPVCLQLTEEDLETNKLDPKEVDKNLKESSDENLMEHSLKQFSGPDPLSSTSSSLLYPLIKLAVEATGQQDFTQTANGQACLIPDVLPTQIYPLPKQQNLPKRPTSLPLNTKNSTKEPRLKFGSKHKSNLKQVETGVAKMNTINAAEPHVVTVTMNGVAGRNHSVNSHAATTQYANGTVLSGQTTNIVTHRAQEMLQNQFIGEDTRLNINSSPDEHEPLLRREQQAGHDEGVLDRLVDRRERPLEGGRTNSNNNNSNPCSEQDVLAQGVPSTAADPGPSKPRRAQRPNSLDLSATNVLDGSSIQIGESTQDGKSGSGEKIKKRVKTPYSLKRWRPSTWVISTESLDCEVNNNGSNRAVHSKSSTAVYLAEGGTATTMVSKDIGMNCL
Conditions: BMPR2; 1 uM. In a few lines: (§1)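 Compounds tested at 1 uM against the scanMAX kinase panel. Signal expressed as % control = (compound − positive control)/(DMSO negative control − positive control) × 100, where positive control = 0% and DMSO = 100%; below 35% counted as activity on that kinase.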

Experiment [2] addresses T2, kinases of the scanMAX Kinase assay panel (Homo sapiens, UniProt Q9NRM7).
T2 construct: purchased DiscoverX Co. (contract measurement) scanMAX Kinase assay panel
T2 sequence (Q9NRM7 1-1088): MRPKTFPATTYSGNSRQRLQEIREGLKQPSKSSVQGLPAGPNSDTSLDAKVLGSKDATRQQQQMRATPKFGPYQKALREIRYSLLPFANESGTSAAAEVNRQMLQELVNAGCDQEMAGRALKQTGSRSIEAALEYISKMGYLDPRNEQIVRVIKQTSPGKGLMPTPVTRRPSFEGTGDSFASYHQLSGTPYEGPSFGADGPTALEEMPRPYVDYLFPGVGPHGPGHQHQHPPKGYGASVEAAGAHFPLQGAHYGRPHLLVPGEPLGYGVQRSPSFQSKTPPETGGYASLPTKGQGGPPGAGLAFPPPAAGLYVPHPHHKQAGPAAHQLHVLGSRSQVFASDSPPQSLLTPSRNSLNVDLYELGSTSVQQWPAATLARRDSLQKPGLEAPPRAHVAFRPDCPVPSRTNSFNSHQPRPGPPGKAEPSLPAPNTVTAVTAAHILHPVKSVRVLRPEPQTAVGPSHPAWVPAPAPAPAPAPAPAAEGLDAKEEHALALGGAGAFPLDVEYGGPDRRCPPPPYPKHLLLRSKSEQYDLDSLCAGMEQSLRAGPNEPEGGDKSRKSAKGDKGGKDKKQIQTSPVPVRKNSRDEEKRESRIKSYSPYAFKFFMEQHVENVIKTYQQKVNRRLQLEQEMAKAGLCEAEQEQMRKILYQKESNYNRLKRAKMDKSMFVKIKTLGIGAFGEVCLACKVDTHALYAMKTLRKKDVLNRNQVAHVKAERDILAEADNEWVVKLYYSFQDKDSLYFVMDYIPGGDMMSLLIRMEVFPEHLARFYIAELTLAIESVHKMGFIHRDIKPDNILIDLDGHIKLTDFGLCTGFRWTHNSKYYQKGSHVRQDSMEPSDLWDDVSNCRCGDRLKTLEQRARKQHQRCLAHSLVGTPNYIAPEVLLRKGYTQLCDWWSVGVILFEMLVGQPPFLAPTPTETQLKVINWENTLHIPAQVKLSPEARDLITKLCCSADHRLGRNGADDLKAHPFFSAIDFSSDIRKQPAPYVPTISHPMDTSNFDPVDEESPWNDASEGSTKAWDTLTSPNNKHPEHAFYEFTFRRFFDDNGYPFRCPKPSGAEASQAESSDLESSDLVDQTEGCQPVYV
Conditions: LATS2; 1 uM. In a few lines:
as §1

In experiment [3] the target is T3, kinases of the scanMAX Kinase assay panel (Homo sapiens, UniProt P00519, H396P).
T3 construct: purchased DiscoverX Co. (contract measurement) scanMAX Kinase assay panel
Conditions: 1 uM. In a few lines: as §1

Experiment [4] concerns the target T4, kinases of the scanMAX Kinase assay panel (Homo sapiens, UniProt P08631).
T4 construct: purchased DiscoverX Co. (contract measurement) scanMAX Kinase assay panel
Conditions: HCK; 1 uM. Summed up: as §1

For experiment [5], the target named is T5, kinases of the scanMAX Kinase assay panel (Homo sapiens, UniProt O60674).
T5 construct: purchased DiscoverX Co. (contract measurement) scanMAX Kinase assay panel
The conditions noted are these: JAK2(JH1domain-catalytic); 1 uM. Summed up:
as §1

T4 sequence (P08631 whole entry): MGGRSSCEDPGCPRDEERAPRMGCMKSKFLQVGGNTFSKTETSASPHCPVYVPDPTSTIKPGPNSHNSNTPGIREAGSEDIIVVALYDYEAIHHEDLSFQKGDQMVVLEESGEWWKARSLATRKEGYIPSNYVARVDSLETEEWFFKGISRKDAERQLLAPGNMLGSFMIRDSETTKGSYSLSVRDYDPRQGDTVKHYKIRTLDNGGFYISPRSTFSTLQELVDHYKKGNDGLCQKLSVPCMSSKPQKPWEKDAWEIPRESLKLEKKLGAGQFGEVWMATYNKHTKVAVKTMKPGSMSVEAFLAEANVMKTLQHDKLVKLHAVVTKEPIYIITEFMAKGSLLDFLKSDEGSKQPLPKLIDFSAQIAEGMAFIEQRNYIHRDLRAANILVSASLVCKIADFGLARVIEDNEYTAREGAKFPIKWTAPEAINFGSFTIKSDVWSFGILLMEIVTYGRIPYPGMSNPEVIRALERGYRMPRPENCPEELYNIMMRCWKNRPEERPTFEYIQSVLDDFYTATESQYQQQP
T5 sequence (O60674 whole entry): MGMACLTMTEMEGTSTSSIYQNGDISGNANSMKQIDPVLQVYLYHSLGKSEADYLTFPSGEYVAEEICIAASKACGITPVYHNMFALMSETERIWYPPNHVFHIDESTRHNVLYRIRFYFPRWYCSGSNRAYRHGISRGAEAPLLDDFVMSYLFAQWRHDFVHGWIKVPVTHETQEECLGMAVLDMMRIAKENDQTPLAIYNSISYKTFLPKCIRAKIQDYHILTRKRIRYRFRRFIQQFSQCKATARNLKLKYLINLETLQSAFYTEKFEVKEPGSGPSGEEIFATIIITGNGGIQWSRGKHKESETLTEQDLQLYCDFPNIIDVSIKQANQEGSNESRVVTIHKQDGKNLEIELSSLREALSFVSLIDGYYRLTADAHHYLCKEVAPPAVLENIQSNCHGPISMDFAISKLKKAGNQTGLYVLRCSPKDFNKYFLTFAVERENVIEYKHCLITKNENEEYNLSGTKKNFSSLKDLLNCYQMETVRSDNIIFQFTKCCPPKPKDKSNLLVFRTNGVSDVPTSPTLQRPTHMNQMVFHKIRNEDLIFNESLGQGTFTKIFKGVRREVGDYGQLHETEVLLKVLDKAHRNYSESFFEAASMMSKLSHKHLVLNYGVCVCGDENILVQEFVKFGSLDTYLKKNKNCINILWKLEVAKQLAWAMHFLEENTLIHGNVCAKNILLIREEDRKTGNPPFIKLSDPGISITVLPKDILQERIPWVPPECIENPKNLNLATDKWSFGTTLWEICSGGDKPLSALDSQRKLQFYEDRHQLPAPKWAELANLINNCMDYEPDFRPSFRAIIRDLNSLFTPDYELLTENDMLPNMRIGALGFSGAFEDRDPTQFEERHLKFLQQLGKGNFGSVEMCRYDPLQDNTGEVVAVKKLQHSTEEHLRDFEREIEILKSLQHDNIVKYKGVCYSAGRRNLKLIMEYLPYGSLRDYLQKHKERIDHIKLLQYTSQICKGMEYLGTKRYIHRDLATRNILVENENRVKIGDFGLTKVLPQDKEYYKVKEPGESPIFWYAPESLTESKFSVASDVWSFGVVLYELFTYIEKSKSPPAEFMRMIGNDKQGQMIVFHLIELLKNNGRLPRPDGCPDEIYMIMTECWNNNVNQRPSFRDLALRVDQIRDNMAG

As for `CNc1nc(Nc2ccc(C(=O)N3CCOCC3)cc2OC)nc2[nH]cc(C#N)c12` [Example 1, 2-((2-methoxy-4-(morpholine-4-carbonyl)phenyl)amino)-4-(methylamino)-7H-pyrrolo[2,3-d]pyrimidine-5-carbonitrile], the remaining binding at 1 µM in experiment [1] came out at 79%; in experiment [2], 61%; in experiment [3] (ABL1(H396P)-nonphosphorylated) it was 81%; in experiment [3] (ABL1(H396P)-phosphorylated), 94%; in experiment [4], 95%; in experiment [5], 83%.
For the compound `CC1(Nc2nc(Nc3cnn([C@H]4CCN(C5COC5)C[C@@H]4F)c3Cl)nc3[nH]cc(C#N)c23)CC1` [Example 52, 2-((5-chloro-1-((3S,4S)-3-fluoro-1-(oxetane-3-yl)piperidine-4-yl)-1H-pyrazole-4-yl)amino)((1-methylcyclopropyl)amino)-7H-pyrrolo[2,3-d]pyrimidine-5-carbonitrile], the remaining binding at 1 µM in experiment [1] turned out to be 0.65%; in experiment [2], 11%; in experiment [3] (ABL1(H396P)-nonphosphorylated), 0.55%; in experiment [3] (ABL1(H396P)-phosphorylated), 0.9%; in experiment [4] it was 11%; in experiment [5], 0%.
Take `CCNc1nc(Nc2ccc(C(=O)N3CCC(N4CCOCC4)CC3)cc2OC)nc2[nH]cc(C(F)(F)F)c12` [Example 104, (4-((4-(ethylamino)-5-(trifluoromethyl)-7H-pyrrolo[2,3-d]pyrimidine-2-yl)amino)-3-methoxyphenyl)(4-morpholinopiperidine-1-yl)methanone]: the remaining binding at 1 µM in experiment [1] turned out to be 100%; in experiment [2] it was 87%; in experiment [3] (ABL1(H396P)-nonphosphorylated), 96%; in experiment [3] (ABL1(H396P)-phosphorylated), 74%; in experiment [4], 100%; in experiment [5] it was 100%.

(Values after patent publication US11208412B2 (DAEGU-GYEONGBUK MEDICAL INNOVATION FOUNDATION, priority 2017, dated 2021).)
